Patent US20240325303A1, “KETOROLAC LIQUID COMPOSITION, PREPARATION METHOD THEREFOR, AND APPLICATION THEREOF” (SHANGHAI AURORA BIOTECHNOLOGY CO., LTD., priority 2021, published 2024)

Key:
[1] = system: human plasma protein; test: in vitro
Experimental: Samples at the dosing and receiving ends and at the preparation instant (0 h) were assayed by LC-MS/MS, and the plasma protein binding (PPB) rates and the recovery rates were calculated based on the assay results. The plasma samples and PBS samples prepared from the test samples and the commercially available controls were incubated at 37° C. for 6 h with oscillation (100 rpm) and then assayed for stability.

[2] = multiple tests; cited from earlier work
[3] = compared with morphine; cited from earlier work
[4] = standard animal models for analgesic effect; cited from earlier work

| recovery at 6 h, 300 ng/mL [1] [%] | SMILES | anti-inflammatory activity compared with indomethacin, naproxen, phenylbutazone [2] | relieving postsurgical pain [3] | analgesic activity compared with indomethacin, naproxen, phenylbutazone [4] | analgesic activity relative to aspirin [4] [times] |
| --- | --- | --- | --- | --- | --- |
| 96.2 | CC(=O)CC(c1ccccc1)c1c(O)c2ccccc2oc1=O (centres unmarked) [Warfarin] | – | – | – | – |
| – | O=C(c1ccccc1)c1ccc2n1CCC2C(=O)O (centres unmarked) [Ketorolac tromethamine] | equivalent to or stronger than that of indomethacin, stronger than that of naproxen, and significantly better than that of phenylbutazone | superior to morphine | stronger than that of indomethacin and naproxen, and equivalent to or better than that of phenylbutazone | 800 |
